# Source: patent US20030139391A1 (priority 2000, published 2003)
# Marks after values point to notes of the source that are not given here.
# Columns and labels:
# [1] = system: Patients diagnosed with Alzheimer's Disease; experiment: ADCS/ADL scale in 5-month slow-titration trial; assay type: in vivo, human
# Text: (§1) Subjects in the Placebo group received 21 weeks (5 months) of placebo medication.
# The ADCS/ADL scale is a 23-item informant-based assessment scale measuring widely applicable daily activities appropriate for patients in the mild to moderate category of Alzheimer's Disease. The 23 items were selected for measurement from the larger set of 45 items studied by Galasko et al (Alzheimer Disease and Associated Disorders, Vol 11, Suppl. 2, 1997). These individual items were scored from 0-3 to […], depending on the question, with a possible total score of 78. A higher score indicated a higher functioning patient.
# An additional secondary indication captures overall changes in Activities of daily Living (ADL) performances as measured by the Alzheimer's Disease Cooperative Study Activities of Daily Living (ACDS/ADL) scale. As mentioned above this scale is comprised of 23 items that have been tested and validated in patients with mild to moderately severe Alzheimer's disease.
# [2] = system: patients; experiment: Side effects and dropout in earlier studies with shorter titration; assay type: in vivo, human; conditions: for Abdominal Pain: % / Abdominal Pain: number / Diarrhea: % / Diarrhea: number / Dyspepsia: % / Dyspepsia: number / Gastro-intestinal System Disorders, Adverse events: % / Gastro-intestinal System Disorders, Adverse events: number / Nausea: % / Nausea: number / Vomiting: % / Vomiting: number: shorter titration
# Text: In contrast with earlier studies with a shorter titration of the drug the incidence of side effects, particularly gastro-intestinal system disorders, were […]. A example of this is shown below in Table 11.
# [3] = in humans; cited from earlier work
# [4] = system: Patients diagnosed with Alzheimer's Disease; experiment: ADAS-cog/11 in 5-month slow-titration trial; assay type: in vivo, human
# Text: as §1
# All patients were monitored throughout the study, with follow-up and cognitive evaluation at four weeks, three months and five months after the start of the study.
# The ADAS consists of two parts—a cognitive subscale and a behavioral subscale. The behavioral subscale was not be used in this study. The cognitive subscale, the ADAS—cog-11, consisted of Word Recall and Word Recognition memory tests, Object and Finger Naming, Commands, Constructional Praxis, Ideational Praxis, Orientation, Remembering Test Instructions, Spoken language Ability, Comprehension of Spoken language and Word Finding Difficulty was the primary variable in this study.
# To reduce variability due to circadian fluctuations in cognitive status the ADAS was done always at the same time of the day, preferably before noon. Only a trained ADAS rater performed the test. Ideally the ADAS rater was not involved in the treatment of the subject and should have no access to AE (adverse event) reporting.
# The ADAS was performed at visits 1, 2, 3, 4 and 5 (screening, baseline, week 4, week 13 and month 5 or upon early discontinuation of trial medication intake). For word recall and word recognition two parallel wordlists, list A and list B were employed. List A was used at visits 1 and 3, List B at visits 2, 4, and 5 or upon early discontinuation of trial medication intake. For practical reasons the words for word recognition was presented only once. The total score of the 11 cognitive items on the original ADAS cognitive subscale (ADAS-cog/11, Range: 0-70) was recorded.
# For continuous data, a two-way analysis of variance (ANOVA) model with treatment and investigator as factors were used to compare the treatment groups for the change from baseline data. The interaction between treatment and investigator was examined. The impact of the baseline score on change from baseline was evaluated. […] If the parametric methods were deemed inappropriate (normality assumption violated), nonparametric methods such as two-way ANOVA on ranked data, Van Elteren test, controlling for investigator, was used. Following ANOVA, Fisher's LSD procedure was used for pairwise comparisons between each galanthamine group and the placebo group. A linear contrast on the main effect for treatment was used to test the dose response relationship.
structure (smiles),measurement,setting,value
"COc1ccc2c3c1O[C@H]1C[C@@H](O)C=C[C@@]31CCN(C)C2 [GAL, galantamine]","Change in Total ADL score from baseline at Month 5, Mean (SE)","[1]; LOCF, 8 mg/day",−3.2 (0.79)
same,"Change in Total ADL score from baseline at Month 5, Mean (SE)","[1]; LOCF, 24 mg/day",−1.5 (0.56)**
same,"Change in Total ADL score from baseline at Month 5, Mean (SE)","[1]; observed case, 8 mg/day",−3.1 (0.91)
same,"Change in Total ADL score from baseline at Month 5, Mean (SE)","[1]; observed case, 16 mg/day",−0.5 (0.55)***^†
same,"Change in Total ADL score from baseline at Month 5, Mean (SE)","[1]; observed case, 24 mg/day",−1.6 (0.61)**
same,Abdominal Pain: %,[2]; 18 mg,2.3%
same,Abdominal Pain: number,[2]; 18 mg,2
same,Diarrhea: %,[2]; 18 mg,2.3%
same,Diarrhea: number,[2]; 18 mg,2
same,Dyspepsia: %,[2]; 18 mg,5.7%
same,Dyspepsia: number,[2]; 18 mg,5
same,"Gastro-intestinal System Disorders, Adverse events: %",[2]; 18 mg,31.8%
same,"Gastro-intestinal System Disorders, Adverse events: number",[2]; 18 mg,28
same,Nausea: %,[2]; 18 mg,17.0%
same,Nausea: number,[2]; 18 mg,15
same,Vomiting: %,[2]; 18 mg,17.0%
same,Vomiting: number,[2]; 18 mg,15
same,Abdominal Pain: %,[2]; 24 mg,7.4%
same,Abdominal Pain: number,[2]; 24 mg,36
same,Diarrhea: %,[2]; 24 mg,9.6%
same,Diarrhea: number,[2]; 24 mg,47
same,Dyspepsia: %,[2]; 24 mg,4.3%
same,Dyspepsia: number,[2]; 24 mg,21
same,"Gastro-intestinal System Disorders, Adverse events: %",[2]; 24 mg,49.0%
same,"Gastro-intestinal System Disorders, Adverse events: number",[2]; 24 mg,239
same,Nausea: %,[2]; 24 mg,35.2%
same,Nausea: number,[2]; 24 mg,172
same,Vomiting: %,[2]; 24 mg,19.1%
same,Vomiting: number,[2]; 24 mg,93
same,Abdominal Pain: %,[2]; 32 mg,8.4%
same,Abdominal Pain: number,[2]; 32 mg,59
same,Diarrhea: %,[2]; 32 mg,12.9%
same,Diarrhea: number,[2]; 32 mg,91
same,Dyspepsia: %,[2]; 32 mg,4.5%
same,Dyspepsia: number,[2]; 32 mg,32
same,"Gastro-intestinal System Disorders, Adverse events: %",[2]; 32 mg,55.8%
same,"Gastro-intestinal System Disorders, Adverse events: number",[2]; 32 mg,393
same,Nausea: %,[2]; 32 mg,37.6%
same,Nausea: number,[2]; 32 mg,265
same,Vomiting: %,[2]; 32 mg,18.6%
same,Vomiting: number,[2]; 32 mg,131
same,dropout rate due to cholinergic side effects,"[2]; 36 mg daily in three doses, two week titration",50%
same,Abdominal Pain: %,[2]; 36 mg,1.9%
same,Abdominal Pain: number,[2]; 36 mg,1
same,Diarrhea: %,[2]; 36 mg,3.7%
same,Diarrhea: number,[2]; 36 mg,2
same,Dyspepsia: %,[2]; 36 mg,0 (0%)
same,Dyspepsia: number,[2]; 36 mg,0 (0%)
same,"Gastro-intestinal System Disorders, Adverse events: %",[2]; 36 mg,50.0%
same,"Gastro-intestinal System Disorders, Adverse events: number",[2]; 36 mg,27
same,Nausea: %,[2]; 36 mg,37.0%
same,Nausea: number,[2]; 36 mg,20
same,Vomiting: %,[2]; 36 mg,16.7%
same,Vomiting: number,[2]; 36 mg,9
same,Abdominal Pain: %,[2]; flexable dose,1.9%
same,Abdominal Pain: number,[2]; flexable dose,18
same,Diarrhea: %,[2]; flexable dose,14.6%
same,Diarrhea: number,[2]; flexable dose,38
same,Dyspepsia: %,[2]; flexable dose,3.4%
same,Dyspepsia: number,[2]; flexable dose,9
same,"Gastro-intestinal System Disorders, Adverse events: %",[2]; flexable dose,51.0%
same,"Gastro-intestinal System Disorders, Adverse events: number",[2]; flexable dose,133
same,Nausea: %,[2]; flexable dose,32.2%
same,Nausea: number,[2]; flexable dose,84
same,Vomiting: %,[2]; flexable dose,14.6%
same,Vomiting: number,[2]; flexable dose,38
same,passing the blood-brain barrier,[3],capable of passing the blood-brain barrier
same,"Responders, ADAS-cog/11 change ≦ 0 points at Month 5: %",[4]; 8 mg/day,46.5%
same,"Responders, ADAS-cog/11 change ≦ 0 points at Month 5: n",[4]; 8 mg/day,47
same,"Responders, ADAS-cog/11 change ≦ −4 points at Month 5: %",[4]; 8 mg/day,25.7%
same,"Responders, ADAS-cog/11 change ≦ −4 points at Month 5: n",[4]; 8 mg/day,26
same,"Responders, ADAS-cog/11 change ≦ −7 points at Month 5: %",[4]; 8 mg/day,13.9%
same,"Responders, ADAS-cog/11 change ≦ −7 points at Month 5: n",[4]; 8 mg/day,14
same,"Responders, ADAS-cog/11 change ≦ −10 points at Month 5: %",[4]; 8 mg/day,5.9%
same,"Responders, ADAS-cog/11 change ≦ −10 points at Month 5: n",[4]; 8 mg/day,6
same,"Responders, ADAS-cog/11 change ≦ 0 points at Month 5: %",[4]; 16 mg/day,65.4%
same,"Responders, ADAS-cog/11 change ≦ 0 points at Month 5: n",[4]; 16 mg/day,136
same,"Responders, ADAS-cog/11 change ≦ −4 points at Month 5: %",[4]; 16 mg/day,35.6%
same,"Responders, ADAS-cog/11 change ≦ −4 points at Month 5: n",[4]; 16 mg/day,74
same,"Responders, ADAS-cog/11 change ≦ −7 points at Month 5: %",[4]; 16 mg/day,15.9%
same,"Responders, ADAS-cog/11 change ≦ −7 points at Month 5: n",[4]; 16 mg/day,33
same,"Responders, ADAS-cog/11 change ≦ −10 points at Month 5: %",[4]; 16 mg/day,7.2%
same,"Responders, ADAS-cog/11 change ≦ −10 points at Month 5: n",[4]; 16 mg/day,15
same,"Responders, ADAS-cog/11 change ≦ 0 points at Month 5: %",[4]; 24 mg/day,64.9%
same,"Responders, ADAS-cog/11 change ≦ 0 points at Month 5: n",[4]; 24 mg/day,137
same,"Responders, ADAS-cog/11 change ≦ −4 points at Month 5: %",[4]; 24 mg/day,37.0%
same,"Responders, ADAS-cog/11 change ≦ −4 points at Month 5: n",[4]; 24 mg/day,78
same,"Responders, ADAS-cog/11 change ≦ −7 points at Month 5: %",[4]; 24 mg/day,22.3%
same,"Responders, ADAS-cog/11 change ≦ −7 points at Month 5: n",[4]; 24 mg/day,47
same,"Responders, ADAS-cog/11 change ≦ −10 points at Month 5: %",[4]; 24 mg/day,10.4%
same,"Responders, ADAS-cog/11 change ≦ −10 points at Month 5: n",[4]; 24 mg/day,22
same,"Change from baseline in ADAS-cog/11 at Month 5, Mean (SE)","[4]; LOCF, 8 mg/day, no titration",0.4 (0.52)▪
same,"Change from baseline in ADAS-cog/11 at Month 5, Mean (SE)","[4]; LOCF, 16 mg/day after 4-week titration",−1.4 (0.35)***^♭
same,"Change from baseline in ADAS-cog/11 at Month 5, Mean (SE)","[4]; LOCF, 24 mg/day after 8-week titration",−1.4 (0.39)***^♭
same,"Change from baseline in ADAS-cog/11 at Month 5, Mean (SE)","[4]; observed case, 8 mg/day, no titration",0.1 (0.58)*
same,"Change from baseline in ADAS-cog/11 at Month 5, Mean (SE)","[4]; observed case, 16 mg/day after 4-week titration",−1.5 (0.40)***^†
same,"Change from baseline in ADAS-cog/11 at Month 5, Mean (SE)","[4]; observed case, 24 mg/day after 8-week titration",−1.8 (0.44)***^†
